The source of these data is US10457655B2, “Compounds and compositions for inhibition of FASN” (FORMA Therapeutics, Inc., priority 2013, dated 2019).

Where two headings read alike, the source gives them in different places.

One assay concerns the target FASN enzyme (Homo sapiens, UniProt P49327). As to the kind of experiment: Enzymatic Assay for FASN Inhibitors. The format is biochemical. The essentials:
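40 nM FASN preincubated with compound 60 min at 25° C in HEPES pH 7.3 buffer with 0.04% Triton X-100. Then 20 μM acetyl-CoA, 60 μM malonyl-CoA and 100 μM NADPH added for 90 min, quenched with CPM thiol probe; fluorescence 360/530 nm, IC50 by four-parameter fit.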

The subject of the next assay is PC3 cells. As to the kind of experiment: Cell Proliferation Assays for FASN Inhibitors (PC3 cells, MTT). It is filed as cell-based. The conditions noted are these: Homo sapiens, PC-3, 96 h. Here is the method: The effects of the FASN inhibitors on cultured cancer cell proliferation were studies with cell proliferation assays. PC3 cells were maintained at standard culture media (F12K media supplemented with 10% fetal bovine serum, 1×MEM nonessential amino acid and 1× penicillin/streptomycin). 2000-3000 cells/100 μL/well was seeded in a 96-well clear culture plate. The cells were incubated overnight in 5% CO2 at 37° C. for attachment. Cell media were removed and replaced with F12K media containing 10% lipid reduced serum and compound. The final DMSO concentration is 0.1%. The cells were maintained in 5% CO2 at 37° C. for 4 days. The viability of cells was determined by MTT assays. The IC50 of a given compound was calculated by fitting the dose response curve with a four parameter logistic equation.

The mark [1] stands for this setting: read-out: IC50 (uM) < 0.5, 10% lipid reduced serum, 4 days, Table 3-1.
The mark [2] stands for this setting: read-out: IC50 (uM) ≥ 0.5, 10% lipid reduced serum, 4 days, Table 3-2.

Chain of FASN enzyme (P49327 whole entry): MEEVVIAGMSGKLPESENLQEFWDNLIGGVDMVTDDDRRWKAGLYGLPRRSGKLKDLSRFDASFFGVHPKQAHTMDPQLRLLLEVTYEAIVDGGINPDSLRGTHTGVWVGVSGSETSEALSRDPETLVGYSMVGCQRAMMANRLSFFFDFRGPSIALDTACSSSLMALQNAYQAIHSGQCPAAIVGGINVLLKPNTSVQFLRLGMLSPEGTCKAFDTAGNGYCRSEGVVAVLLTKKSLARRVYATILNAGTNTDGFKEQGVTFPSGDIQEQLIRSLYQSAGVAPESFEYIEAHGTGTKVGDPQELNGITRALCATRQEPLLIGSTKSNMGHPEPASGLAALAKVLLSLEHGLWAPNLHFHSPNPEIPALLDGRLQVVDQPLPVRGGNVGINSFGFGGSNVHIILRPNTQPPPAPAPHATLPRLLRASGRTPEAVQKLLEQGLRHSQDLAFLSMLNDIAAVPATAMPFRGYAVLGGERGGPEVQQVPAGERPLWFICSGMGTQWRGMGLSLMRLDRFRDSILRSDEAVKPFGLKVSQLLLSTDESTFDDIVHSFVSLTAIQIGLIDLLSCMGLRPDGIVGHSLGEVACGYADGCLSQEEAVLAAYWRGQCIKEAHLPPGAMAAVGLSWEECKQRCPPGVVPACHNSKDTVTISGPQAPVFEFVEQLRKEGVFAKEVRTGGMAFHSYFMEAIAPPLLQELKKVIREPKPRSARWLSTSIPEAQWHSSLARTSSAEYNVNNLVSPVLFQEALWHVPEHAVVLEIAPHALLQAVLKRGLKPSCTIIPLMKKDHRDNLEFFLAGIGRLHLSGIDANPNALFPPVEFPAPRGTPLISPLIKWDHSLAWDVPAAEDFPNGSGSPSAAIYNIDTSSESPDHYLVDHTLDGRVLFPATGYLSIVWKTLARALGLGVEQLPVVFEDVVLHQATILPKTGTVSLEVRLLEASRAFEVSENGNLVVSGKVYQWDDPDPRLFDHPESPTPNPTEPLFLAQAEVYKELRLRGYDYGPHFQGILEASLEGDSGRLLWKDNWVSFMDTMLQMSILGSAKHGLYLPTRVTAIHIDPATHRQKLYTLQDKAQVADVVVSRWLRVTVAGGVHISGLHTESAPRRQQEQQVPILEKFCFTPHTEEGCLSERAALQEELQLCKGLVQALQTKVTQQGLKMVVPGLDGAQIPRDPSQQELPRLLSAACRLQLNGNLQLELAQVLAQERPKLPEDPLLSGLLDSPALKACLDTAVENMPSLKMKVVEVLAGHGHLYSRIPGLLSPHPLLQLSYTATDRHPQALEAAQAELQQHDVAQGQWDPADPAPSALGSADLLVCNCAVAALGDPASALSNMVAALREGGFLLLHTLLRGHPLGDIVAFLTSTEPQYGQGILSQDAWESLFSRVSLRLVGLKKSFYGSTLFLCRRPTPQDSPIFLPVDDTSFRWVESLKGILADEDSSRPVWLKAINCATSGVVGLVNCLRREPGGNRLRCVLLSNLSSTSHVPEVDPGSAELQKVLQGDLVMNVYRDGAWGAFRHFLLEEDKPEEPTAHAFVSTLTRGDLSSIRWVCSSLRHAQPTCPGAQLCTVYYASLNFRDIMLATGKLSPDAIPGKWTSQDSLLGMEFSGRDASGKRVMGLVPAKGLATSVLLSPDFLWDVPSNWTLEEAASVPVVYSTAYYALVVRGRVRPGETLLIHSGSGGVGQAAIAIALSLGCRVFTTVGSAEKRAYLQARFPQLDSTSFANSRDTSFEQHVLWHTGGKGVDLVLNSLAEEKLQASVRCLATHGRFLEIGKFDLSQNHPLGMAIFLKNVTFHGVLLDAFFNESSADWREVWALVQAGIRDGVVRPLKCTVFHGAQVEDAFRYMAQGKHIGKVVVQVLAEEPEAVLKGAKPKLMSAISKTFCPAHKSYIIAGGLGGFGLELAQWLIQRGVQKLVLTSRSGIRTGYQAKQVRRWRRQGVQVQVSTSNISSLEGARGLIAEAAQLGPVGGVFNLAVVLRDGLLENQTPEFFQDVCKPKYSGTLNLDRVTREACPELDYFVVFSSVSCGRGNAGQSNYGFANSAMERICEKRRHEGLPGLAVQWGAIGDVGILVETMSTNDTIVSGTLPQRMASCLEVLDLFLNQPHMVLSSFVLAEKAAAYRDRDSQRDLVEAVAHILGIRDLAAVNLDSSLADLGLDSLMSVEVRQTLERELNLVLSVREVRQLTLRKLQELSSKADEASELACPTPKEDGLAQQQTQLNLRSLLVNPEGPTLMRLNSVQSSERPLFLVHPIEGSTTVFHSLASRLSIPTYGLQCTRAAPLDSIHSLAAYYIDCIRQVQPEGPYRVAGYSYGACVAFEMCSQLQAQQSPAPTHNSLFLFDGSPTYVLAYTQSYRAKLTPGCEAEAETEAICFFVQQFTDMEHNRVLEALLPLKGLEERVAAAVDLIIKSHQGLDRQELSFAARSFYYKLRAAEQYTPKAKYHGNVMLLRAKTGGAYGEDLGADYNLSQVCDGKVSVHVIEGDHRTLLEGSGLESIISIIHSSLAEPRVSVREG

On to `O=C(c1ccc(-c2nc3ccc(F)cc3o2)cc1)N1CCN(C(=O)C2(O)CC2)CC1` [1-[(4-{[4-(6-fluoro-1,3-benzoxazol-2-yl)phenyl]carbonyl}piperazin-1-yl)carbonyl]cyclopropan-1-ol], for which the IC50 against FASN enzyme was under 500 nM; in the assay on PC3 cells (setting [1]) it was under 0.5 µM.
For `O=C(c1ccc(-c2ccc3ncccc3c2)c(Cl)c1)N1CCN(C(=O)C2(O)CC2)CC1` [1-[(4-{[3-chloro-4-(quinolin-6-yl)phenyl]carbonyl}piperazin-1-yl)carbonyl]cyclopropan-1-ol], in that order: under 500 nM and under 0.5 µM.
Regarding `O=C(c1ccc(-c2ccc3ncsc3c2)cc1)N1CCN(C(=O)C2(O)CC2)CC1` [1-[(4-{[4-(1,3-benzothiazol-6-yl)phenyl]carbonyl}piperazin-1-yl)carbonyl]cyclopropan-1-ol], the IC50 on FASN enzyme was under 500 nM; in the assay on PC3 cells (setting [1]) it was under 0.5 µM.
`O=C(c1ccc(-c2ccc3ncccc3c2)cc1F)N1CCN(C(=O)C2(O)CC2)CC1` [1-[(4-{[2-fluoro-4-(quinolin-6-yl)phenyl]carbonyl}piperazin-1-yl)carbonyl]cyclopropan-1-ol]: the results for the half-inhibitory concentration (IC50) against FASN enzyme and with PC3 cells (setting [1]) were under 500 nM and under 0.5 µM, respectively.
On the same counts, the results for `N#Cc1c[nH]c2ccc(-c3ccc(C(=O)N4CCN(C(=O)C5(O)CC5)CC4)cc3)cc12` [5-[4-({4-[(1-hydroxycyclopropyl)carbonyl]piperazin-1-yl}carbonyl)phenyl]-1H-indole-3-carbonitrile] are under 500 nM and under 0.5 µM.
Consider `CC(C)n1cc(C#N)c2cc(-c3ccc(C(=O)N4CCN(C(=O)C5(O)CC5)CC4)cc3)ccc21`, for which the IC50 against FASN enzyme is under 500 nM; with PC3 cells (setting [1]), under 0.5 µM.
On the same counts, the results for `O=C(c1ccc(-c2cc3ccccc3[nH]c2=O)cc1)N1CCN(C(=O)C2(O)CC2)CC1` [3-[4-({4-[(1-hydroxycyclopropyl)carbonyl]piperazin-1-yl}carbonyl)phenyl]-1,2-dihydroquinolin-2-one] are under 500 nM and under 0.5 µM.
For `O=C(c1ccc(-c2nc3ccccc3s2)cc1)N1CCN(C(=O)C2(O)CC2)CC1` [1-[(4-{[4-(1,3-benzothiazol-2-yl)phenyl]carbonyl}piperazin-1-yl)carbonyl]cyclopropan-1-ol], in that order: under 500 nM and under 0.5 µM.
With `O=C(c1ccc(-c2ccc3[nH]ccc3n2)cc1)N1CCN(C(=O)C2(O)CC2)CC1` [1-({4-[(4-{1H-pyrrolo[3,2-b]pyridin-5-yl}phenyl)carbonyl]piperazin-1-yl}carbonyl)cyclopropan-1-ol], the IC50 was under 500 nM at FASN enzyme and under 0.5 µM in the assay with PC3 cells (setting [1]).
For `COc1cc(-n2cccn2)ccc1-c1ccc(C(=O)N2CCN(C(=O)C3(O)CC3)CC2)cc1`, the IC50 on FASN enzyme was under 500 nM; in the assay with PC3 cells (setting [2]), at least 0.5 µM.
With `O=C(c1ccc(-c2ccc3occc3n2)cc1)N1CCN(C(=O)C2(O)CC2)CC1` [1-({4-[(4-{furo[3,2-b]pyridin-5-yl}phenyl)carbonyl]piperazin-1-yl}carbonyl)cyclopropan-1-ol], the IC50 against FASN enzyme was under 500 nM; with PC3 cells (setting [1]), under 0.5 µM.
For `O=C(c1ccc(-c2cccc3[nH]cnc23)cc1)N1CCN(C(=O)C2(O)CC2)CC1` [1-[(4-{[4-(1H-1,3-benzodiazol-4-yl)phenyl]carbonyl}piperazin-1-yl)carbonyl]cyclopropan-1-ol], the values for the IC50 at FASN enzyme and in the assay with PC3 cells (setting [1]) were under 500 nM and under 0.5 µM, respectively.
As for `O=C(c1ccc(-c2ccc3cnccc3c2)cc1)N1CCN(C(=O)C2CCO2)CC1` (stereo not shown) [6-[4-({4-[(oxetan-2-yl)carbonyl]piperazin-1-yl}carbonyl)phenyl]isoquinoline], the results for the IC50 against FASN enzyme and with PC3 cells (setting [1]) were under 500 nM and under 0.5 µM, respectively.
For `N#Cc1cc2cc(-c3ccc(C(=O)N4CCN(C(=O)C5(O)CC5)CC4)cc3)ccc2[nH]1` [5-[4-({4-[(1-hydroxycyclopropyl)carbonyl]piperazin-1-yl}carbonyl)phenyl]-1H-indole-2-carbonitrile], in that order: under 500 nM and under 0.5 µM.
On the same counts, the results for `O=C(c1ccc(-c2ccc3[nH]ccc3c2)cc1)N1CCN(C(=O)C2(O)CC2)CC1` [1-[(4-{[4-(1H-indol-5-yl)phenyl]carbonyl}piperazin-1-yl)carbonyl]cyclopropan-1-ol] are under 500 nM and under 0.5 µM.
For `N#Cc1c[nH]c2ccc(-c3ccc(C(=O)N4CCN(C(=O)C5(O)CC5)CC4)cc3Cl)cc12`, in that order: under 500 nM and under 0.5 µM.
`O=C(c1ccc(-c2ccc3scnc3c2)c(F)c1)N1CCN(C(=O)C2(O)CC2)CC1` [1-[(4-{[4-(1,3-benzothiazol-5-yl)-3-fluorophenyl]carbonyl}piperazin-1-yl)carbonyl]cyclopropan-1-ol]: the results for the IC50 against FASN enzyme and in the assay with PC3 cells (setting [1]) were under 500 nM and under 0.5 µM, respectively.
As for `COc1c(Cl)cccc1-c1ccc(C(=O)N2CCN(C(=O)C3(O)CC3)CC2)cc1` [1-[(4-{[4-(3-chloro-2-methoxyphenyl)phenyl]carbonyl}piperazin-1-yl)carbonyl]cyclopropan-1-ol], the IC50 on FASN enzyme is under 500 nM; in the assay on PC3 cells (setting [1]), under 0.5 µM.
For `Cn1ccc2cc(-c3ccc(C(=O)N4CCN(C(=O)C5(O)CC5)CC4)c(C(F)(F)F)c3)ccc21` [1-[(4-{[4-(1-methyl-1H-indol-5-yl)-2-(trifluoromethyl)phenyl]carbonyl}piperazin-1-yl)carbonyl]cyclopropan-1-ol], in that order: under 500 nM and under 0.5 µM.
For `Cc1cc(C(=O)N2CCN(C(=O)C3(O)CC3)CC2)ccc1-c1ccc2ncccc2c1` [1-[(4-{[3-methyl-4-(quinolin-6-yl)phenyl]carbonyl}piperazin-1-yl)carbonyl]cyclopropan-1-ol], in that order: under 500 nM and under 0.5 µM.
For `O=C(c1ccc(-c2nc3cc(Cl)ccc3o2)cc1)N1CCN(C(=O)C2(O)CC2)CC1` [1-[(4-{[4-(5-chloro-1,3-benzoxazol-2-yl)phenyl]carbonyl}piperazin-1-yl)carbonyl]cyclopropan-1-ol], in that order: under 500 nM and under 0.5 µM.
As for `O=C(c1ccc(-c2ccc(Cl)cc2Cl)cc1)N1CCN(C(=O)C2(O)CC2)CC1` [1-[(4-{[4-(2,4-dichlorophenyl)phenyl]carbonyl}piperazin-1-yl)carbonyl]cyclopropan-1-ol], the IC50 at FASN enzyme was under 500 nM; in the assay with PC3 cells (setting [2]) it was at least 0.5 µM.
Regarding `N#Cc1c[nH]c2ccc(-c3ccc(C(=O)N4CCN(C(=O)C5(O)CC5)CC4)c(Cl)c3)cc12`, the IC50 was under 500 nM against FASN enzyme and under 0.5 µM with PC3 cells (setting [1]).
On the same counts, the results for `O=C(c1ccc(-c2ccc3ccccc3n2)cc1)N1CCN(C(=O)C2(O)CC2)CC1` [1-[(4-{[4-(quinolin-2-yl)phenyl]carbonyl}piperazin-1-yl)carbonyl]cyclopropan-1-ol] are under 500 nM and under 0.5 µM.
On the same counts, the results for `O=C(c1ccc(-c2ccc3nsnc3c2)cc1)N1CCN(C(=O)C2(O)CC2)CC1` [1-[(4-{[4-(2,1,3-benzothiadiazol-5-yl)phenyl]carbonyl}piperazin-1-yl)carbonyl]cyclopropan-1-ol] are under 500 nM and under 0.5 µM.
On the same counts, the results for `O=C(c1ccc(-c2ccc3ncccc3c2)cc1Cl)N1CCN(C(=O)C2(O)CC2)CC1` [1-[(4-{[2-chloro-4-(quinolin-6-yl)phenyl]carbonyl}piperazin-1-yl)carbonyl]cyclopropan-1-ol] are under 500 nM and under 0.5 µM.
Regarding `Cc1cc(C(=O)N2CCN(C(=O)C3(O)CC3)CC2)ccc1-c1ccc2c(ccn2C)c1` [1-[(4-{[3-methyl-4-(1-methyl-1H-indol-5-yl)phenyl]carbonyl}piperazin-1-yl)carbonyl]cyclopropan-1-ol], the IC50 against FASN enzyme is under 500 nM; in the assay with PC3 cells (setting [1]), under 0.5 µM.
As for `Cn1cc2cc(-c3ccc(C(=O)N4CCN(C(=O)C5(O)CC5)CC4)cc3)ccc2n1` [1-[(4-{[4-(2-methyl-2H-indazol-5-yl)phenyl]carbonyl}piperazin-1-yl)carbonyl]cyclopropan-1-ol], the IC50 on FASN enzyme was under 500 nM; in the assay with PC3 cells (setting [1]), under 0.5 µM.
Take `O=C(c1ccc2nc(-c3ccccc3)sc2c1)N1CCN(C(=O)C2(O)CC2)CC1` [1-({4-[(2-phenyl-1,3-benzothiazol-6-yl)carbonyl]piperazin-1-yl}carbonyl)cyclopropan-1-ol]: the results for the IC50 against FASN enzyme and with PC3 cells (setting [1]) were under 500 nM and under 0.5 µM, respectively.
For `Cn1ncc2ccc(-c3ccc(C(=O)N4CCN(C(=O)C5(O)CC5)CC4)cc3)cc21` [1-[(4-{[4-(1-methyl-1H-indazol-6-yl)phenyl]carbonyl}piperazin-1-yl)carbonyl]cyclopropan-1-ol], in that order: under 500 nM and under 0.5 µM.
Take `O=C(c1ccc(-c2ccc3c(ccn3C(F)(F)F)c2)cc1)N1CCN(C(=O)C2(O)CC2)CC1` [1-{[4-({4-[1-(trifluoromethyl)-1H-indol-5-yl]phenyl}carbonyl)piperazin-1-yl]carbonyl}cyclopropan-1-ol]: the IC50 against FASN enzyme (FASN enzymatic assay, Table 2-2) is 500 to 5000 nM; in the assay on PC3 cells (setting [1]) it was under 0.5 µM.
Turning to `O=C(c1ccc(-c2ccc3c(ccn3C(F)(F)F)c2)c(Cl)c1)N1CCN(C(=O)C2(O)CC2)CC1` [1-{[4-({3-chloro-4-[1-(trifluoromethyl)-1H-indol-5-yl]phenyl}carbonyl)piperazin-1-yl]carbonyl}cyclopropan-1-ol], the values for the IC50 against FASN enzyme and with PC3 cells (setting [1]) were under 500 nM and under 0.5 µM, respectively.
